Experimental data as given in patent US11891352B2, “Aminomethyl-functionalized denatonium derivatives, their preparation and use” (Julius-Maximilians-Universitaet Wuerzburg, priority 2018, dated 2024).

Experiment: Stability of amino-functionalized denatonium derivatives (LC/MS measurements)
Assay type: physicochemical
Description: The decomposition of the substance is illustrated as follows: […]

stability: not stable
SMILES: CC[N+](CC)(CC(=O)Nc1c(C)cccc1C)Cc1ccc(N)cc1 [derivative (1)]
